Six compounds from ChEMBL document CHEMBL1201862, “PubChem BioAssay data set” (2004) can be followed below.

The source made the active and inactive calls.

The target in one experiment is T1, Protein RecA (Mycobacterium tuberculosis, UniProt P9WHJ3).
T1 sequence (P9WHJ3 whole entry): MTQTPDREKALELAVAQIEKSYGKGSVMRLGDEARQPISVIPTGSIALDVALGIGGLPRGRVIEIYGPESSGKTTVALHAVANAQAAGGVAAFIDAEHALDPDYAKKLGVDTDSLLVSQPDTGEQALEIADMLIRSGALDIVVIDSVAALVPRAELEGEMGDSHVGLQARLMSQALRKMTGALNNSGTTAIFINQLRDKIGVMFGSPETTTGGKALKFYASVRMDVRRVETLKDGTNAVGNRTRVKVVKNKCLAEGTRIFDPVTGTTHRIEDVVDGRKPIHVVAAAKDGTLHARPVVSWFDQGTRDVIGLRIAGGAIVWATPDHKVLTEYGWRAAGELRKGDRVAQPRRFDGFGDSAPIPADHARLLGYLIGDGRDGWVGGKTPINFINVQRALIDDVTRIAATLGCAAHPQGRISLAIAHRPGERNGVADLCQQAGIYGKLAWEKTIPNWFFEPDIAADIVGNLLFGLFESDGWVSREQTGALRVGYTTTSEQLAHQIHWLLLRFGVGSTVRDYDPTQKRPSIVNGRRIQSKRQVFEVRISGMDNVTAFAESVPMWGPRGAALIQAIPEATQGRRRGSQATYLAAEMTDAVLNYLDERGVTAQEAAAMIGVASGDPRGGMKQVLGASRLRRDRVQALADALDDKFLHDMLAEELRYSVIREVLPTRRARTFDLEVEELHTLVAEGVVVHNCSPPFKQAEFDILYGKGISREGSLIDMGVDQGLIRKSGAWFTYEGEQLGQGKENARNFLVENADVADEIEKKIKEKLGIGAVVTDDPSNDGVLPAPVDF
Description: Fluorescence Cell-Free Homogeneous Dose Retest to Identify Inhibitors of RecA-Intein Splicing Activity. [Related pubchem assays (depositor defined):AID2097, AID2223, AID489010, AID492950]. The format is functional.

The target of another experiment is T2, Protein Tat (Human immunodeficiency virus type 1 group M subtype B (isolate HXB2)(HIV-1), UniProt P04608).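 Further: tat binding to TAR RNA read out by fluorescence polarization.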
T2 sequence (P04608 whole entry): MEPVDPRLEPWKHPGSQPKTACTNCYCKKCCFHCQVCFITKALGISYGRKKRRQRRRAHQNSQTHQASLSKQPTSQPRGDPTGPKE
The format is functional.

For experiment [1], the target named is T3, Apoptotic protease-activating factor 1 (Homo sapiens, UniProt O14727).
T3 sequence (O14727 whole entry): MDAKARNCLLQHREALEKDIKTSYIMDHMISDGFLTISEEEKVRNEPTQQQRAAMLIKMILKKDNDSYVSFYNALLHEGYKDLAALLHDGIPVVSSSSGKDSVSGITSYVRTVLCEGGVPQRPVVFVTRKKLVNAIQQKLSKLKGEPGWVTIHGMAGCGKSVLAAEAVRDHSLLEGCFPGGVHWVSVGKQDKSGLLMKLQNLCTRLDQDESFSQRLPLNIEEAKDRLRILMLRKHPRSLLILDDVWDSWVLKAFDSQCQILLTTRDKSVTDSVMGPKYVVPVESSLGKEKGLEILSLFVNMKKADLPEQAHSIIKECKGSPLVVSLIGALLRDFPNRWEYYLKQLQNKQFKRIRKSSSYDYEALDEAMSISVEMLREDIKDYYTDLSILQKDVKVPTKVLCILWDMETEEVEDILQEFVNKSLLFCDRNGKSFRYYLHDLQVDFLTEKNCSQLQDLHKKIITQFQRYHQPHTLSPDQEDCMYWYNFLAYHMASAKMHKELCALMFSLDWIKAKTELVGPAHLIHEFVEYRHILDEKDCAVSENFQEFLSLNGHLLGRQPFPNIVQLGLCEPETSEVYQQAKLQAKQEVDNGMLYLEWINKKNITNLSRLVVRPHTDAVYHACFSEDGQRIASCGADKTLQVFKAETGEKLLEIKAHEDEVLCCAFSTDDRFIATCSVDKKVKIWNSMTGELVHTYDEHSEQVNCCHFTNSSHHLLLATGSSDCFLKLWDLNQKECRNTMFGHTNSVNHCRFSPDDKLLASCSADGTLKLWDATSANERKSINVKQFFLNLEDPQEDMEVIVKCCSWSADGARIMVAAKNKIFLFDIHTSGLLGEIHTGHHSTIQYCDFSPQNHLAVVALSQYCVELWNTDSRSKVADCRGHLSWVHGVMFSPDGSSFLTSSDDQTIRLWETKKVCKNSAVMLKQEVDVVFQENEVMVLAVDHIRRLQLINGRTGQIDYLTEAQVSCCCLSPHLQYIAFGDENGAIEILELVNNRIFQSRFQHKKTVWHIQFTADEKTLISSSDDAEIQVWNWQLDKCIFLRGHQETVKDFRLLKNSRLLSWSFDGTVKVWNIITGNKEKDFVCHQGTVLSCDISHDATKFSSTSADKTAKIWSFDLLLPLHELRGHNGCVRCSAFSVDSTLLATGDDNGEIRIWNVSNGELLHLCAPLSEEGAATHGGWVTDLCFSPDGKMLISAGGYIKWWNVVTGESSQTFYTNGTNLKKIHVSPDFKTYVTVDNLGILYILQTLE
The class given is functional.

Experiment [2] deals with T4, Replicative DNA helicase DnaB (Mycobacterium tuberculosis, UniProt P9WMR3).
T4 sequence (P9WMR3 whole entry): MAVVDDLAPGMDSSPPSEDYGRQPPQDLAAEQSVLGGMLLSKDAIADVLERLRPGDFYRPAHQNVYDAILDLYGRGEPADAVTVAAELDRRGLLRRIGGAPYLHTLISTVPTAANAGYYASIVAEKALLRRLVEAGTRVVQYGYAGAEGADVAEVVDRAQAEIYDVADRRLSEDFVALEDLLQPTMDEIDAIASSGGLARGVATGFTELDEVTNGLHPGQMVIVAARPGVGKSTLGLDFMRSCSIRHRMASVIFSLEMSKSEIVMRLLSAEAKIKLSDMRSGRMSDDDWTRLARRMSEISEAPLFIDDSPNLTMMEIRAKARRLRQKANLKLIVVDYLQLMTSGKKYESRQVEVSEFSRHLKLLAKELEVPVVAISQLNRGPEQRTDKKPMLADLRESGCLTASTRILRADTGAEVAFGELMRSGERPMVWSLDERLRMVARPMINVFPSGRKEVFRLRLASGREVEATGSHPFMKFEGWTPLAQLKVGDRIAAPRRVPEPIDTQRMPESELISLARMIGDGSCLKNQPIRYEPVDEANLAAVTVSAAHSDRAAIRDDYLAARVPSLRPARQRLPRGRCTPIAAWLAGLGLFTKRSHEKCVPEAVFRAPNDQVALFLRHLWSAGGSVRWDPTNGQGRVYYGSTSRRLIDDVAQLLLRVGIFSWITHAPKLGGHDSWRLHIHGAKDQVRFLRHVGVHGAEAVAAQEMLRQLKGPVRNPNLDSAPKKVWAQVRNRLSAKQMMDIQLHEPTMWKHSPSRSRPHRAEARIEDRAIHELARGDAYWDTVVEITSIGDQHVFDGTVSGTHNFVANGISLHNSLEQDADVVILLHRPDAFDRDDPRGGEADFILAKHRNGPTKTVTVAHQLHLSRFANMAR
Put plainly: DnaB intein splicing inhibitors, dose response, biochemical, cell-free fluorescence (AID 449749). The format is functional.

Experiment [3] concerns the target T5, Estrogen receptor beta (Homo sapiens, UniProt Q92731).
The target of experiment [4] is T5, Estrogen receptor beta. Description: ERβ–SRC-3 coactivator interaction inhibitors, confirmation, orthogonal assay, biochemical, ELISA, streptavidin-HRP readout (AID 1060).
Experiment [5] is described as follows: Shn3 3'UTR reporter inhibitors, dose response, cell-based, Clone20 osteoblasts, firefly luciferase, cherry-picked (AID 624132).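 Further: firefly luciferase luminescence from reporter carrying the Shn3 3'UTR in osteoblasts.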 The class given is functional.
The nature of experiment [6]: HepG2 cell cytotoxicity, dose response, cytotoxicity control for Shn3 inhibitor project, CellTiter-Glo, cherry-picked (AID 624134). The format is functional, cell-based. (In general: ATP-based viability assays read luminescence as a measure of living cells.)
A short description of experiment [7]: HEp-2 cell cytotoxicity, dose response, cytotoxicity control for RSV inhibitor project, HTS (AID 2410). The format is functional. The note with it: human respiratory syncytial virus.
The target of experiment [8] is T6, Neuropeptide Y receptor type 1 (Homo sapiens, UniProt P25929).
T6 sequence (P25929 whole entry): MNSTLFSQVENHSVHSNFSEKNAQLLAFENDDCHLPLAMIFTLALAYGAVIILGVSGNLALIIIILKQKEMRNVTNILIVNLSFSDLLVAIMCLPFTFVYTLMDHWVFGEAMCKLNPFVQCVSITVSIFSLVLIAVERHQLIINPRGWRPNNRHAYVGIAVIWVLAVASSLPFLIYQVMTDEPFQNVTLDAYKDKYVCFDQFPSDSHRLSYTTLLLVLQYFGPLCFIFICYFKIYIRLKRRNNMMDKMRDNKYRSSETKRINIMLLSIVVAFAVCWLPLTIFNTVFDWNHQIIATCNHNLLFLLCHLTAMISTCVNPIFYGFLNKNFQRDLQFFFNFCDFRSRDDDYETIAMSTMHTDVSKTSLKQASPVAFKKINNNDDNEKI
Description: NPY-Y1 receptor antagonist potency, dose response, cell-based (AID 1277). The class given is functional.

The nature of experiment [9]: control 3'UTR Renilla luciferase suppression, dose response, counter-screen for Shn3 inhibitor project, cell-based, Clone20-Shn3RL, cherry-picked (AID 624133). The format is functional.
The target of experiment [10] is T7, Neuropeptide Y receptor type 2 (Homo sapiens, UniProt P49146).
T7 sequence (P49146 whole entry): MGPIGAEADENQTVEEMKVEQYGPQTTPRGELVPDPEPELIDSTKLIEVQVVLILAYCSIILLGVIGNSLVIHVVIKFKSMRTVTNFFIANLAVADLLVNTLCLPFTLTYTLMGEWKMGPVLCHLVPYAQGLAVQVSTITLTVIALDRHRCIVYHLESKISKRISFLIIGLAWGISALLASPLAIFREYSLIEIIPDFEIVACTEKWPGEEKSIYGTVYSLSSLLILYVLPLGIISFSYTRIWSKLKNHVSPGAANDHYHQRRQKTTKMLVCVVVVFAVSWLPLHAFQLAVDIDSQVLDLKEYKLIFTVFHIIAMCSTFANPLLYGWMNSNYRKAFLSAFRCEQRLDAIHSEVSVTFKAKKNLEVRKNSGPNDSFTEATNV
Put plainly: NPY-Y2 antagonist potency, selectivity check, dose response, counter-screen for NPY-Y1 antagonist project, cell-based (AID 1278). The format is functional. Background: A counterscreen serves to expose hits that act by an unwanted route or on another target.

T5 sequence (Q92731 whole entry): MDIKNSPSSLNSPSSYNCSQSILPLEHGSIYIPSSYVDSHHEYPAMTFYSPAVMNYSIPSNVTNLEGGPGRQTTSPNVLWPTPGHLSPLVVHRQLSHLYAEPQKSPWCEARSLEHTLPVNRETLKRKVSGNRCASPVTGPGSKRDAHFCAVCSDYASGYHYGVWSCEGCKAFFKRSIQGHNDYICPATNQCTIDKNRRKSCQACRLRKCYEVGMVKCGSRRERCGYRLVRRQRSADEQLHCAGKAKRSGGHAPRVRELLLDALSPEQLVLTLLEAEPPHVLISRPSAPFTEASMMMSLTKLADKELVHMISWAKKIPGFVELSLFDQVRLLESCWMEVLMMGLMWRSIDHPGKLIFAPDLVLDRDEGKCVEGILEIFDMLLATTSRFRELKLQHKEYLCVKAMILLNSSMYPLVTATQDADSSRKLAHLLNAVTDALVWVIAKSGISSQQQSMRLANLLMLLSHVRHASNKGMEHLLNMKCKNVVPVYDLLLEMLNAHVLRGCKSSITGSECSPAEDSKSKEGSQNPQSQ

One may read the EC50 as the midpoint of the concentration-response curve. One may read the IC50 as the concentration that gives 50% inhibition. What is called AC50 is the midpoint of the concentration-response curve, whichever way the signal moves. As for `Nc1ccc(Oc2ncccn2)cc1`, the EC50 at Protein RecA was 13.8 µM (active). For the same compound, the IC50 was > 100 µM (active) at Protein Tat and 25.7 µM (active) in [1]. In addition, the AC50 in experiment [2] is 29.6 µM (active).
Regarding `N#CC(C(=O)Nc1ccccc1)=C1CCCCC1`, at Estrogen receptor beta [3], the IC50 is given as > 50 µM (not active).
Regarding `O=C(CSc1nnc(Nc2ccccc2F)s1)NCc1ccco1`, the IC50 at Estrogen receptor beta [4] was 0.142 µM (not active); at Estrogen receptor beta [3], 13.7 µM (active).
As for `NC(=O)Cc1c[nH]c2cccc(O)c12`, at Estrogen receptor beta [4], the IC50 is > 50 µM (not active).
Take `O=S(=O)(Nc1ccc(N2CCOCC2)cc1)c1cccs1`: the IC50 against Estrogen receptor beta [4] is listed as > 50 µM (not active).
What is called CC50 is the concentration that lowers cell viability or growth by half. `CC(C)(C)n1nnnc1C(c1ccc(C(F)(F)F)cc1)N(Cc1ccccc1)Cc1ccco1` (stereo not given): the AC50 in experiment [5] was 4.74 µM (active); in experiment [6], 44.1 µM (active); in experiment [9], 6.74 µM (active). Further, the CC50 in experiment [7] is 9.91 µM (active). The IC50 in experiment [8] and in experiment [10] was > 35 µM (not active) each time.
